Data as given in US20090209536A1, “AMINOQUINAZOLINE CANNABINOID RECEPTOR MODULATORS FOR TREATMENT OF DISEASE” (KALYPSYS, INC., priority 2007, published 2009).
Read-outs that look alike come from different tables or passages of the source.

Experiments:
[1] = biological target: T1, human cannabinoid receptor type 1 (Homo sapiens, UniProt P21554); test: Human CB1 Radioligand Binding Assay (basis of selectivity, CB2 vs. CB1); conditions: CB1: HEK 293 EBNA cells expressing human CB1; CB2: CHO CB2 membranes
T1 construct: purchased Perkin Elmer RBHCB1M; host or cells: HEK 293 EBNA cells
T1 sequence (P21554 whole entry): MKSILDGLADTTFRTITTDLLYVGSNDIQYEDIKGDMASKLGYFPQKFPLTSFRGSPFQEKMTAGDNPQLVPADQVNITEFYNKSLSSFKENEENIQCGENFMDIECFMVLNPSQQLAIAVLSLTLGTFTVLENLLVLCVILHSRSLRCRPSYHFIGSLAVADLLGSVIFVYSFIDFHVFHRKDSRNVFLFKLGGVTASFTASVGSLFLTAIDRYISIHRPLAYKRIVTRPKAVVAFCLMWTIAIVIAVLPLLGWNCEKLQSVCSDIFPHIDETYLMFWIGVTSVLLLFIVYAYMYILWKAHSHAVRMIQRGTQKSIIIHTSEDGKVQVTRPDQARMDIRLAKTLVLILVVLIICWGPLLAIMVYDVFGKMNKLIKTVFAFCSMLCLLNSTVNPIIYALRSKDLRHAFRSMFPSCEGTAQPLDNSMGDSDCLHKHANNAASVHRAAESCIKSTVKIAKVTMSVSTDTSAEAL
Protocol: 2. Human CB1 Radioligand Binding Assay
The incubation buffer was composed of 50 mM Tris-HCl pH 7.4, 2.5 mM EDTA, 5 mM MgCl2, 5.0 mg/ml fatty acid free BSA and the wash buffer was composed of 50 mM Tris-HCl pH 7.4, 2.5 mM EDTA, 5 mM MgCl2, 0.5 mg/ml fatty acid free BSA.

[2] = biological target: T2, human cannabinoid receptor type 2 (Homo sapiens, UniProt P34972); test: Human CB2 Radioligand Binding Assay; conditions: membranes from stably transfected CHO CB2 cells
T2 construct: expressed in transfected cells; membrane preparation
T2 sequence (P34972 whole entry): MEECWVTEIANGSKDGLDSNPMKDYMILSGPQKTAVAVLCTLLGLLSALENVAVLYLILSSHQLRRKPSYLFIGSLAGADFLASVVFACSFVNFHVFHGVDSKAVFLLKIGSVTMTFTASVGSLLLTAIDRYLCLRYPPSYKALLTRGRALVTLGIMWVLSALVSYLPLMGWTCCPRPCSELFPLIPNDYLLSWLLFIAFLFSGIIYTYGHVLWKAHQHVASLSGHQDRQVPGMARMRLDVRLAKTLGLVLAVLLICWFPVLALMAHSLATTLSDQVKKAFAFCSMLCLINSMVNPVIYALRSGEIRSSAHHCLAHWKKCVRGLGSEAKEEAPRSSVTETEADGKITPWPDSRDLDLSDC
Procedure, shortened: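 Test compounds (10 uM final, or dose-response) competed with [3H]CP-55,940, used at the Kd determined per membrane lot, for binding to stable human CB2-CHO membranes over 90 min at 30° C in pH 7.4 Tris/EGTA/MgCl2/BSA buffer. GF/C filtration then scintillation counting; 100 nM CP-55,940 defined 100% efficacy.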

[3] = competition with [3H] CP-55,940, read-out: CB2 Ligand Binding Asssay EC50
[4] = CB2 Ligand Binding Asssay EC50, competition with [3H] CP-55,940

SMILES | Selectivity, CB2 vs. CB1 [1] | EC50 [2, 3] | EC50 [2, 4]
CN1CCN(c2nc(-c3ccccc3F)nc3ccccc23)CC1 [Example 152, 2-(2-Fluorophenyl)-4-(4-methylpiperazin-1-yl)quinazoline] | + (+ indicates > 10−fold) | < 1000 nM | –
CC(=O)N1CCN(c2nc(-c3ccccc3F)nc3ccccc23)CC1 [Example 153, 1-(4-(2-(2-Fluorophenyl)quinazolin-4-yl)piperazin-1-yl)ethanone] | + (+ indicates > 10−fold) | < 1000 nM | –
CC(=O)N1CCN(c2nc(-c3cccc(F)c3)nc3ccccc23)CC1 [Example 154, 1-(4-(2-(3-Fluorophenyl)quinazolin-4-yl)piperazin-1-yl)ethanone] | + (+ indicates > 10−fold) | < 1000 nM | –
Cc1ccccc1-c1nc(N2CCCC2)c2ccccc2n1 [Example 155, 4-Pyrrolidin-1-yl-2-o-tolylquinazoline] | − (− indicates ≦ 10−fold) | > 1000 nM | –
Cc1ccccc1-c1nc(N2CCOCC2)c2ccccc2n1 [Example 156, 4-Morpholin-4-yl-2-o-tolylquinazoline] | − (− indicates ≦ 10−fold) | > 1000 nM | –
Cc1ccccc1-c1nc(N2CCN(C)CC2)c2ccccc2n1 [Example 157, 4-(4-Methylpiperazin-1-yl)-2-o-tolylquinazoline] | + (+ indicates > 10−fold) | < 1000 nM | –
COc1ccc2c(N3CCN(C)CC3)nc(C3CCCCC3)nc2c1 [Example 158, 2-Cyclohexyl-7-methoxy-4-(4-methylpiperazin-1-yl)quinazoline] | − (− indicates ≦ 10−fold) | > 1000 nM | –
COc1ccc2c(N3CCCC3)nc(C3CCCCC3)nc2c1 [Example 159, 2-Cyclohexyl-7-methoxy-4-(pyrrolidin-1-yl)quinazoline] | + (+ indicates > 10−fold) | > 1000 nM | –
Clc1ccc2c(N3CCCC3)nc(C3CCCCC3)nc2c1 [Example 160, 7-Chloro-2-cyclohexyl-4-(pyrrolidin-1-yl)quinazoline] | − (− indicates ≦ 10−fold) | < 1000 nM | –
CN1CCN(c2nc(C3CCCCC3)nc3ccc(Cl)cc23)CC1 [Example 161, 6-Chloro-2-cyclohexyl-4-(4-methylpiperazin-1-yl)quinazoline] | − (− indicates ≦ 10−fold) | < 1000 nM | –
COc1ccc2nc(C3CCCCC3)nc(N3CCCC3)c2c1 [Example 162, 2-Cyclohexyl-6-methoxy-4-(pyrrolidin-1-yl)quinazoline] | + (+ indicates > 10−fold) | < 1000 nM | –
COc1ccc2nc(C3CCCCC3)nc(N3CCN(C)CC3)c2c1 [Example 163, 2-Cyclohexyl-6-methoxy-4-(4-methylpiperazin-1-yl)quinazoline] | − (− indicates ≦ 10−fold) | < 1000 nM | –
Clc1ccc2c(N3CCCCC3)nc(C3CCCCC3)nc2c1 [Example 164, 7-Chloro-2-cyclohexyl-4-(piperidin-1-yl)quinazoline] | + (+ indicates > 10−fold) | < 1000 nM | –
Clc1ccc2c(N3CCOCC3)nc(C3CCCCC3)nc2c1 [Example 165, 4-(7-Chloro-2-cyclohexylquinazolin-4-yl)morpholine] | + (+ indicates > 10−fold) | – | > 1000 nM
CN1CCN(c2nc(C3CCCCC3)nc3cc(Cl)ccc23)CC1 [Example 166, 7-Chloro-2-cyclohexyl-4-(4-methylpiperazin-1-yl)quinazoline] | + (+ indicates > 10−fold) | < 1000 nM | –
Clc1ccc2nc(C3CCCCC3)nc(N3CCCC3)c2c1 [Example 167, 6-Chloro-2-cyclohexyl-4-(pyrrolidin-1-yl)quinazoline] | + (+ indicates > 10−fold) | < 1000 nM | –
CN1CCN(c2nc(-c3ccccc3Cl)nc3ccc(C(C)(C)C)cc23)CC1 [Example 168, 6-tert-Butyl-2-(2-chlorophenyl)-4-(4-methylpiperazin-1-yl)quinazoline] | + (+ indicates > 10−fold) | < 1000 nM | –
CC(C)(C)c1ccc2nc(-c3ccccc3Cl)nc(N3CCSCC3)c2c1 [Example 169, 4-(6-tert-Butyl-2-(2-chlorophenyl)quinazolin-4-yl)thiomorpholine] | + (+ indicates > 10−fold) | < 1000 nM | –
CC(C)(C)c1ccc2nc(-c3ccccc3Cl)nc(N3CCCCC3)c2c1 [Example 170, 6-tert-Butyl-2-(2-chlorophenyl)-4-(piperidin-1-yl)quinazoline] | + (+ indicates > 10−fold) | < 1000 nM | –

SMILES | Selectivity, CB2 vs. CB1 [1] | EC50 [2, 3] | EC50 [2, 4]
CC(C)(C)c1ccc2nc(-c3ccccc3Cl)nc(N3CCCC3)c2c1 [Example 171, 6-tert-Butyl-2-(2-chlorophenyl)-4-(pyrrolidin-1-yl)quinazoline] | + (+ indicates > 10−fold) | < 1000 nM | –
COc1ccc2nc(-c3ccccc3Cl)nc(N3CCSCC3)c2c1 [Example 172, 4-(2-(2-Chlorophenyl)-6-methoxyquinazolin-4-yl)thiomorpholine] | + (+ indicates > 10−fold) | < 1000 nM | –
CCc1ccc2nc(-c3ccccc3Cl)nc(N3CCN(C)CC3)c2c1 [Example 173, 2-(2-Chlorophenyl)-6-ethyl-4-(4-methylpiperazin-1-yl)quinazoline] | + (+ indicates > 10−fold) | < 1000 nM | –
CCc1ccc2nc(-c3ccccc3Cl)nc(N3CCSCC3)c2c1 [Example 174, 4-(2-(2-Chlorophenyl)-6-ethylquinazolin-4-yl)thiomorpholine] | + (+ indicates > 10−fold) | < 1000 nM | –
CCc1ccc2nc(-c3ccccc3Cl)nc(N3CCCCC3)c2c1 [Example 175, 2-(2-Chlorophenyl)-6-ethyl-4-(piperidin-1-yl)quinazoline] | − (− indicates ≦ 10−fold) | < 1000 nM | –
CCc1ccc2nc(-c3ccccc3Cl)nc(N3CCCC3)c2c1 [Example 176, 2-(2-Chlorophenyl)-6-ethyl-4-(pyrrolidin-1-yl)quinazoline] | + (+ indicates > 10−fold) | < 1000 nM | –
COc1ccc2nc(-c3ccccc3Cl)nc(N3CCN(C)CC3)c2c1 [Example 177, 2-(2-Chlorophenyl)-6-methoxy-4-(4-methylpiperazin-1-yl)quinazoline] | − (− indicates ≦ 10−fold) | < 1000 nM | –
COc1ccc2nc(-c3ccccc3Cl)nc(N3CCCCC3)c2c1 [Example 178, 2-(2-Chlorophenyl)-6-methoxy-4-(piperidin-1-yl)quinazoline] | − (− indicates ≦ 10−fold) | < 1000 nM | –
COc1ccc2nc(-c3ccccc3Cl)nc(N3CCCC3)c2c1 [Example 179, 2-(2-Chlorophenyl)-6-methoxy-4-(pyrrolidin-1-yl)quinazoline] | + (+ indicates > 10−fold) | < 1000 nM | –
CN1CCN(c2nc(-c3ccccc3Cl)nc3ccc(OC(F)(F)F)cc23)CC1 [Example 180, 2-(2-Chlorophenyl)-4-(4-methylpiperazin-1-yl)-6-(trifluoromethoxy) quinazoline] | − (− indicates ≦ 10−fold) | < 1000 nM | –
FC(F)(F)Oc1ccc2nc(-c3ccccc3Cl)nc(N3CCCCC3)c2c1 [Example 181, 2-(2-Chlorophenyl)-4-(piperidin-1-yl)-6-(trifluoromethoxy) quinazoline] | − (− indicates ≦ 10−fold) | > 1000 nM | –
FC(F)(F)Oc1ccc2nc(-c3ccccc3Cl)nc(N3CCCC3)c2c1 [Example 182, 2-(2-Chlorophenyl)-4-(pyrrolidin-1-yl)-6-(trifluoromethoxy) quinazoline] | − (− indicates ≦ 10−fold) | – | > 1000 nM
Clc1ccccc1-c1nc(N2CCCC2)c2cc(Br)ccc2n1 [Example 184, 6-Bromo-2-(2-chlorophenyl)-4-(pyrrolidin-1-yl)quinazoline] | − (− indicates ≦ 10−fold) | < 1000 nM | –
CC(=O)N1CCN(c2nc(C3CCCCC3)nc3ccc(Cl)cc23)CC1 [Example 185, 1-(4-(6-Chloro-2-cyclohexylquinazolin-4-yl)piperazin-1-yl)ethanone] | − (− indicates ≦ 10−fold) | < 1000 nM | –
COc1ccc2nc(C3CCCCC3)nc(N3CCN(C(C)=O)CC3)c2c1 [Example 186, 1-(4-(2-Cyclohexyl-6-methoxyquinazolin-4-yl)piperazin-1-yl)ethanone] | − (− indicates ≦ 10−fold) | < 1000 nM | –
Cc1ccccc1-c1nc(N2CCCCC2)c2ccccc2n1 [Example 187, 4-Piperidin-1-yl-2-o-tolylquinazoline] | − (− indicates ≦ 10−fold) | > 1000 nM | –
Clc1ccccc1-c1nc(NCC2CCCO2)c2ccccc2n1 (centres unmarked) [Example 188, 2-(2-Chlorophenyl)-N-((tertrahydrofuran-2-yl)methyl)quinzaoline-4-amine] | − (− indicates ≦ 10−fold) | > 1000 nM | –
CC(C)(C)CCNc1nc(-c2ccccc2Cl)nc2ccccc12 [Example 189, 2-(2-Chlorophenyl)-N-(3,3-dimethylbutyl)quinazolin-4-amine] | − (− indicates ≦ 10−fold) | > 1000 nM | –
